According to US6727264B1 (Synaptic Pharmaceutical Corporation, priority 2001, dated 2004):
Read-outs that look alike come from different tables or passages of the source.

Target: rat MCH-1 (Rattus norvegicus, UniProt P97639)
Assay: Radioligand binding assay at cloned rat MCH1 receptor ([3H] Compound A)
Set-up: host or cells: Peak rapid 293 (Peakr293) cells, transient calcium phosphate transfection, membranes
Conditions: cloned rat MCH1 receptor, 0.08 nM [3H] Compound A, read-out: Ki (nM) rMCH1

rat MCH-1, sequence (P97639 whole entry): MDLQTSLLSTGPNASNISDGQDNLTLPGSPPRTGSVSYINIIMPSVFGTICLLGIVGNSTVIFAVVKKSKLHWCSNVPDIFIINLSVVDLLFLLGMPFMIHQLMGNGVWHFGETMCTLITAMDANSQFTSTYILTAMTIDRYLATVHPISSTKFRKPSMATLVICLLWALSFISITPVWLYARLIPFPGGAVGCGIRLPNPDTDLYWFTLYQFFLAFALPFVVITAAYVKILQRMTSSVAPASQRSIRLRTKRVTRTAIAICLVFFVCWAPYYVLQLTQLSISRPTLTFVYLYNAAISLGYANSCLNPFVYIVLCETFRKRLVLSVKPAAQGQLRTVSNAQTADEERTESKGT

Compound | Ki (Peakr293 cell membranes) | Ki (membranes from Peakr293 cells)
COc1cccc(-n2ccc3cccc(CN4CCC(c5cccc(NC(=O)C(C)C)c5)CC4)c32)c1 [Example 860] | 40.5 nM | 
CC(C)C(=O)Nc1cccc(C2CCN(CCCCCCC(O)c3ccccc3F)CC2)c1 (stereo not drawn) [Example 812] | 245 nM | 
CC(C)C(=O)Nc1cccc(C2CCN(CCCCC(=O)N3C(=O)OC[C@@H]3c3ccc(F)c(F)c3)CC2)c1 [Example 575] | 193 nM | 
Cc1cccc(-n2ccc3cccc(CN4CCC(c5cccc(NC(=O)C(C)C)c5)CC4)c32)c1C [Example 878] | 169 nM | 
CCOC(=O)c1[nH]c2ccccc2c1CN1CCC(c2cccc(NC(=O)C(C)C)c2)CC1 [Example 425, ETHYL 3-({4-[3-(ISOBUTYRYLAMINO)PHENYL]-1-PIPERIDINYL}METHYL)-1H-INDOLE-2-CARBOXYLATE] | 599 nM | 
COc1ccc2[nH]c(-c3cccc(Br)c3)c(CCCN3CCC(c4cccc(NC(=O)C(C)C)c4)CC3)c2c1 [Example 765] | 6.5 nM | 
CC(C)C(=O)Nc1cccc(C2CCN(Cc3c[nH]c4ccc(F)cc34)CC2)c1 [Example 454] | 772 nM | 
CCC(=O)Nc1cccc(C2CCN(CCCC(=O)c3ccc(C)c(C)c3)CC2)c1 [Example 543] | 27.6 nM | 
CC(C)C(=O)Nc1cccc(C2CCN(Cc3cccc4c3ccn4-c3cccnc3)CC2)c1 [Example 873] | 345 nM | 
CC(C)C(=O)Nc1cccc(C2CCN(CCCc3c(-c4ccc(Br)cc4)n(-c4ccccc4)c4ccccc34)CC2)c1 [Example 760] | 92.3 nM | 
CC(C)C(=O)Nc1cccc(C2CCN(CCCCn3ccc4ccccc43)CC2)c1 [Example 837] | 35.9 nM | 
O=C(Nc1cccc(C2CCN(Cc3cn(-c4ccccc4)c4ccccc34)CC2)c1)C1CC1 [Example 465] | 10.7 nM | 
O=C(Nc1cccc(C2CCN(CCCCSc3ccccc3)CC2)c1)C1CC1 [Example 584] | 51.8 nM | 
CC(C)C(=O)Nc1cccc(C2CCN(CCNC(=O)C(c3ccccc3)c3ccccc3)CC2)c1 [Example 107] |  | 1.7 nM
COc1ccc(OC(CCCCCN2CCC(c3cccc(NC(=O)C(C)C)c3)CC2)c2ccccc2F)cc1 (stereo not drawn) [Example 892] | 17.3 nM | 
CCC(=O)Nc1ccc(C2CCN(CCCCCn3ccc4ccccc43)CC2)cc1 [Example 827] | 215 nM | 
Cc1ccc(C(=O)CCN2CCC(c3cccc(NC(=O)C(C)C)c3)CC2)cc1 [Example 122] |  | 85.1 nM
COc1ccc(OC(CCCCN2CCC(c3cccc(NC(=O)C(C)C)c3)CC2)c2ccc(F)cc2)cc1 (stereo not drawn) [Example 918] | 29.3 nM | 
CC(C)C(=O)Nc1cccc(C2CCN(CCCCc3c(-c4ccccc4)[nH]c4ccc(OC(F)(F)F)cc34)CC2)c1 [Example 390] |  | 1 nM
CC(C)C(=O)Nc1cccc(C2CCN(CCCCC(Oc3cc(C(F)(F)F)ccc3F)c3ccc(Cl)cc3)CC2)c1 (stereo not drawn) [Example 934] | 12.3 nM | 
CCC(=O)Nc1cccc(C2CCN(CCCCCCSc3ccccc3)CC2)c1 [Example 588] | 284 nM | 
CC(C)C(=O)Nc1cccc(C2CCN(CCCCC(=O)c3ccc(I)cc3)CC2)c1 [Example 676] | 21.9 nM | 
CC(C)C(=O)Nc1ccc(C2CCN(CCCCCCn3ccc4ccccc43)CC2)cc1 [Example 831] | 570 nM | 
CCC(=O)Nc1cccc(C2CCN(CCCCC(=O)c3ccccc3F)CC2)c1 [Example 554] | 70.9 nM | 

Compound | Ki (Peakr293 cell membranes) | Ki (membranes from Peakr293 cells)
CC(C)C(=O)Nc1cccc(C2CCN(CCCOc3cccc(F)c3)CC2)c1 [Example 346] |  | 107 nM
CC(C)C(=O)Nc1cccc(C2CCN(CCC(Oc3ccc(C(F)(F)F)cc3)c3ccc4c(c3)CCC4)CC2)c1 (stereo not drawn) [Example 164] |  | 16.3 nM
CC(C)C(=O)Nc1cccc(C2CCN(C[C@@H](C)COc3ccc(F)cc3)CC2)c1 [Example 367] |  | 236 nM
CC(C)C(=O)Nc1cccc(C2CCN(CCCCC(=O)c3cccc(Br)c3)CC2)c1 [Example 664] | 21.9 nM | 
CC(C)C(=O)Nc1cccc(C2CCN(CCC(Oc3ccc(-c4ccccc4)cc3)c3ccc(Br)cc3)CC2)c1 (stereo not drawn) [Example 145] |  | 197 nM
Cc1ccc2[nH]c(-c3ccccc3)c(CCN3CCC(c4cccc(NC(=O)C(C)C)c4)CC3)c2c1 [Example 399] | 31.9 nM | 
Cc1ccccc1-c1ccc2c(CN3CCC(c4cccc(NC(=O)C(C)C)c4)CC3)c[nH]c2c1 [Example 519] | 80.9 nM | 
CCOC(=O)c1[nH]c2ccc(OC)cc2c1CN1CCC(c2cccc(NC(=O)C(C)C)c2)CC1 [Example 453, ETHYL 3-({4-[3-(ISOBUTYRYLAMINO)PHENYL]-1-PIPERIDINYL}METHYL)-5-METHOXY-1H-INDOLE-2-CARBOXYLATE] | 195 nM | 
O=C(CCCCN1CCC(c2cccc(NC(=O)C3CC3)c2)CC1)c1ccc(F)cc1 [Example 551] | 21.6 nM | 
CC(C)C(=O)Nc1cccc(C2CCN(CCCCC(Oc3ccc(F)cc3)c3ccccc3)CC2)c1 (stereo not drawn) [Example 940] | 1.8 nM | 
CC(C)C(=O)Nc1cccc(C2CCN(CC[C@H](NS(=O)(=O)c3ccc(C(C)(C)C)cc3)c3ccccc3)CC2)c1 [Example 599] | 50 nM | 
CC(C)C(=O)Nc1cccc(C2CCN(CCNC(=O)C(c3ccccc3)c3ccccc3)CC2)c1 [Example 649] | 1.7 nM | 
CC(C)C(=O)Nc1cccc(C2CCN(Cc3cccc4c3ccn4-c3cccc(F)c3)CC2)c1 [Example 875] | 130 nM | 
COc1cc2[nH]cc(CN3CCC(c4cccc(NC(=O)C(C)C)c4)CC3)c2cc1OC [Example 440] | 107 nM | 
CC(C)C(=O)Nc1cccc(C2CCN(CCCNC(=O)Cc3ccc(F)cc3)CC2)c1 [Example 639] | 36.3 nM | 
CC(C)C(=O)Nc1cccc(C2CCN(CCCCCC(Oc3ccccc3F)c3ccccc3F)CC2)c1 (stereo not drawn) [Example 889] | 8.6 nM | 
CC(C)C(=O)Nc1cccc(C2CCN(CC[C@H](NS(=O)(=O)c3cc(Cl)cc(Cl)c3O)c3ccccc3)CC2)c1 [Example 596] | 597 nM | 
CC(C)C(=O)Nc1cccc(C2CCN(CCC(Oc3ccc(F)cc3)c3ccc(F)cc3)CC2)c1 (stereo not drawn) [Example 139] |  | 38.7 nM
Cc1onc(-c2c(Cl)cccc2Cl)c1C(=O)OCCCN1CCC(c2cccc(NC(=O)C(C)C)c2)CC1 [Example 288, 3-{4-[3-(ISOBUTYRYLAMINO)PHENYL]-1-PIPERIDINYL}PROPYL 3-(2,6-DICHLOROPHENYL)-5-METHYL-4-ISOXAZOLECARBOXYLATE] |  | 30.2 nM
CCC(=O)Nc1cccc(C2CCN(Cc3cn(-c4cccc(Cl)c4)c4cc(Cl)ccc34)CC2)c1 [Example 478] | 11.7 nM | 
CC(C)C(=O)Nc1cccc(C2CCN(Cc3c(-c4ccccc4)n(-c4ccccc4)c4ccccc34)CC2)c1 [Example 433] | 30.4 nM | 
CC(C)C(=O)Nc1cccc(C2CCN(Cc3cccc4ccn(-c5cccnc5)c34)CC2)c1 [Example 867] | 892 nM | 
CC(C)C(=O)Nc1cccc(C2CCN(C[C@H](Oc3ccc(F)cc3)c3ccccc3)CC2)c1 [Example 337] |  | 907 nM
CC(C)C(=O)Nc1cccc(C2CCN(Cc3cn(-c4ccccc4)c4cc(F)ccc34)CC2)c1 [Example 502] | 4.6 nM | 

Compound | Ki (Peakr293 cell membranes) | Ki (membranes from Peakr293 cells)
CC(=O)c1ccc(-c2cccc3c(CN4CCC(c5cccc(NC(=O)C(C)C)c5)CC4)c[nH]c23)cc1 [Example 522] | 247 nM | 
CC(C)C(=O)Nc1cccc(C2CCN(CCCc3c(-c4ccc(Cl)cc4)n(-c4ccccc4)c4ccccc34)CC2)c1 [Example 721] | 75.3 nM | 
CC(C)C(=O)Nc1cccc(C2CCN(CCCCSc3ccccc3)CC2)c1 [Example 585] | 37.2 nM | 
COc1cccc2c(CN3CCC(c4cccc(NC(=O)C(C)C)c4)CC3)c[nH]c12 [Example 510] | 305 nM | 
CCCC(=O)Nc1ccc(C2CCN(Cc3ccc4c(c3)c3ccccc3n4CC)CC2)cc1 [Example 820] | 109 nM | 
CC(=O)c1cccc(OCCCN2CCC(c3cccc(NC(=O)C4CC4)c3)CC2)c1 [Example 342] |  | 183 nM
CC(C)C(=O)Nc1cccc(C2CCN(C[C@H](C)COc3ccc(Br)cc3)CC2)c1 [Example 356] |  | 54.5 nM
CC(C)C(=O)Nc1cccc(C2CCN(Cc3c[nH]nc3-c3cccs3)CC2)c1 [Example 235] |  | 412 nM
CC(C)C(=O)Nc1cccc(C2CCN(CCCCC(Oc3cc(C(F)(F)F)ccc3F)c3ccc(F)cc3)CC2)c1 (stereo not drawn) [Example 935] | 19.7 nM | 
CC(C)C(=O)Nc1cccc(C2CCN(CCCCC(=O)c3cccc(F)c3)CC2)c1 [Example 669] | 42.2 nM | 
O=C(Nc1cccc(C2CCN(Cc3cn(-c4cccc(Cl)c4)c4ccccc34)CC2)c1)C1CC1 [Example 463] | 17.2 nM | 
COc1cccc2c(CCN3CCC(c4cccc(NC(=O)C(C)C)c4)CC3)c(-c3ccccc3)[nH]c12 [Example 400] | 43.9 nM | 
Cc1cccc2c(CCN3CCC(c4cccc(NC(=O)C(C)C)c4)CC3)c(-c3ccccc3)[nH]c12 [Example 401] | 44.6 nM | 
COc1ccc2[nH]cc(CCCN3CCC(c4cccc(NC(=O)C(C)C)c4)CC3)c2c1 [Example 95] |  | 5.4 nM
COc1ccccc1C(=O)N[C@@H](CCN1CCC(c2cccc(NC(=O)C(C)C)c2)CC1)c1ccccc1 [Example 310] |  | 152 nM
CC(C)C(=O)Nc1cccc(C2CCN(CCCCC(O)c3cccc(Cl)c3)CC2)c1 (stereo not drawn) [Example 816] | 89.6 nM | 
CC(=O)c1ccccc1OC(CCCCN1CCC(c2cccc(NC(=O)C(C)C)c2)CC1)c1ccccc1 (stereo not drawn) [Example 938] | 609 nM | 
CC(=O)c1cccc(OC(CCCCN2CCC(c3cccc(NC(=O)C(C)C)c3)CC2)c2ccc(F)cc2)c1 (stereo not drawn) [Example 922] | 25 nM | 
CCC(=O)Nc1cccc(C2CCN(Cc3c[nH]c4cc(F)ccc34)CC2)c1 [Example 468] | 912 nM | 
CC(C)C(=O)Nc1cccc(C2CCN(Cc3cn(-c4ccc(F)cc4)c4ccccc34)CC2)c1 [Example 450] | 7.1 nM | 
COc1ccc2[nH]c(-c3ccc([N+](=O)[O-])cc3)c(CCCN3CCC(c4cccc(NC(=O)C(C)C)c4)CC3)c2c1 [Example 774] | 7.9 nM | 
CC(C)C(=O)Nc1cccc(C2CCN(CCCCC(Oc3ccc(Br)cc3)c3ccccc3)CC2)c1 (stereo not drawn) [Example 924] | 13.1 nM | 
CC(C)C(=O)Nc1cccc(C2CCN(Cc3ccc4nsnc4c3)CC2)c1 [Example 232] |  | 431 nM
CC(C)C(=O)Nc1cccc(C2CCN(CCCc3c(-c4cccc(F)c4)n(C)c4ccccc34)CC2)c1 [Example 705] | 8.5 nM | 
